Target: T1, TANK-2 enzyme (Homo sapiens, UniProt Q9H2K2)
T1 construct: His tag (inferred from capture on a Ni-coated plate); made in house
T1 sequence (Q9H2K2 1-1166): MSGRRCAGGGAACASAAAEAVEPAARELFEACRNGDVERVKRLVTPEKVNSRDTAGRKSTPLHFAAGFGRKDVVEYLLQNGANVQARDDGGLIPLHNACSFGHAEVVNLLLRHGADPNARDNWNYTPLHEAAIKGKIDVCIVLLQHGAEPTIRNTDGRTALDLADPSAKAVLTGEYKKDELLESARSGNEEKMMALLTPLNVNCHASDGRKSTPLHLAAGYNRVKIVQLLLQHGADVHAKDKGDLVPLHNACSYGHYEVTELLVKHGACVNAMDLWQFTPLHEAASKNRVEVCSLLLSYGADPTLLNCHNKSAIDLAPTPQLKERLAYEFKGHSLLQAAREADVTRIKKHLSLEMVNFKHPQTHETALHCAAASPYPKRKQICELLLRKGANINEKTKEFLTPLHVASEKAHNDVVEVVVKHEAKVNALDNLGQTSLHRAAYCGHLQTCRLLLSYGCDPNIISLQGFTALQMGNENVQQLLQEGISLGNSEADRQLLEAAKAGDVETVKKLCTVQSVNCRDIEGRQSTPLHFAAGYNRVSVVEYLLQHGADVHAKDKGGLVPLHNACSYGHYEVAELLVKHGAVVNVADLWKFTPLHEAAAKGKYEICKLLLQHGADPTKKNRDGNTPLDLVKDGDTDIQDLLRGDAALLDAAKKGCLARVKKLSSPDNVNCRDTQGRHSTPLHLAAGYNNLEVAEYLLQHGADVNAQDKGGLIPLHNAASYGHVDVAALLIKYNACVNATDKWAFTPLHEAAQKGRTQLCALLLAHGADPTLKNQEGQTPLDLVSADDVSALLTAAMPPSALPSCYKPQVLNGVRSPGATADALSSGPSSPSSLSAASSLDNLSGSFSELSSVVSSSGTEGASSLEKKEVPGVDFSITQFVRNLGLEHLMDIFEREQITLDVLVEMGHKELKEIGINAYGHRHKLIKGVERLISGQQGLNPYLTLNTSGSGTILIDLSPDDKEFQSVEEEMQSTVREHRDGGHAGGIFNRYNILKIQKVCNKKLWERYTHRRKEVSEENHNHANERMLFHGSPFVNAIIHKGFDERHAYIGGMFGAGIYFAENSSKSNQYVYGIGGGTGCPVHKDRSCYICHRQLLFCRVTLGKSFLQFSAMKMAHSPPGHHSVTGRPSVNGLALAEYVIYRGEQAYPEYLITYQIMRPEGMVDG
Assay: in vitro Scintillation Proximity Assay (SPA) for TANK-2 inhibitory activity
Type: biochemical
Method: In Vitro Scintillation Proximity Assay (SPA) for Tank-2 Inhibitory Activity
Compounds of the present invention were tested in an in vitro assay based on SPA technology with Ni Flash plates (96 or 384 well).
In principle, the assay relies upon SPA technology for the detection of auto-poly(ADP-ribosylation of TANK-2 protein using [^3H]-nicotinamide adenine dinucleotide ([^3H]-NAD^+) as ADP-ribosyl donor.
A stock solution of [^3H]-NAD^+/NAD was made by adding 64.6 μl of [^3H]-NAD^+ (0.1 mCi/ml, supplier: Perkin Elmer) and 46.7 μl NAD-stock (10.7 mM, stored at −20° C., supplier Roche) to 1888.7 μl assay buffer (60 mM Tris/HCl, pH 7.4; 0.9 mM DTT; 6 mM MgCl2). The TANK-2 enzyme was produced as described in EP1238063.60 μl of assay buffer, together with 1 μl of compound in DMSO, 20 μl of [^3H]-NAD^+/NAD and 20 μl of TANK-2 enzyme (final concentration 6 μg/ml) was added per well into a 96-well Ni-coated flash plate (Perkin Elmer). After incubation of the mixture for 120 min. at room temperature, the reaction was terminated by adding 60 μl of stopsolution (42.6 mg NAD in 6 ml H2O). The plates were covered with a plate sealer and placed in a TopCountNXT™ (Packard) for scintillation counting. Values were expressed as counts per minute (cpm). For each experiment, controls (containing TANK-2 enzyme and DMSO without compound), a blank incubation (containing DMSO but no TANK-2 enzyme or compound) and samples (containing TANK-2 enzyme and compound dissolved in DMSO) were run in parallel. All compounds tested were dissolved and eventually further diluted in DMSO. […] In each test, the blank value was subtracted from both the control and the sample values. The control sample represented maximal TANK-2 enzyme activity. For each sample, the amount of cpm was expressed as a percentage of the mean cpm value of the controls. When appropriate, IC50-values (concentration of the drug, needed to reduce the TANK-2 enzyme activity to 50% of the control) were computed using linear interpolation between the experimental points just above and below the 50% level. Herein the effects of test compounds are expressed as pIC50 (the negative log value of the IC50-value). As reference compounds, 3-aminobenzamide and 4-amino-1,8-naphthalimide were included to validate the SPA assay. Herein the assay was described using 96-well plates. In the assay using 384-well plates the same final concentrations were used and volumes were adapted.

O=c1[nH]nc(NC2CCN(C[C@@H](O)[C@@H]3CCc4ccccc4O3)CC2)c2ccccc12 (relative stereo) [Compound 27]
IC50: > 10 µM

O=c1[nH]nc(C2CCN(Cc3ccccc3)CC2)c2ccccc12 [Compound 1]
IC50: 8.43 µM

O=c1[nH]nc(N[C@@H]2C[C@H]3CC[C@@H](C2)N3CCCC(c2ccc(F)cc2)c2ccc(F)cc2)c2ccccc12 [Compound 3]
IC50: 5.05 µM

O=c1[nH]nc(C2CCNCC2)c2ccccc12 [Compound 4]
IC50: > 10 µM

CCOC(=O)N1[C@@H]2CC[C@H]1C[C@H](Nc1n[nH]c(=O)c3ccccc13)C2 [Compound 11]
IC50: 2.13 µM

Clc1nnc(NC2CCN(Cc3ccccc3)C2)c2ccccc12 (centres unmarked) [Compound 12]
IC50: 9.27 µM

O=c1[nH]nc(C2CCN(CCCOc3ccc(F)cc3)CC2)c2ccccc12 [Compound 13]
IC50: > 10 µM

O=c1[nH]nc(N[C@@H]2C[C@H]3CC[C@@H](C2)N3)c2ccccc12 [Compound 15]
IC50: > 10 µM

CCOC(=O)N1[C@@H]2CC[C@H]1C[C@H](Nc1nnc(Cl)c3ccccc13)C2 [Compound 24]
IC50: 4.37 µM

CCOC(=O)N1CCC(c2n[nH]c(=O)c3ccccc23)CC1 [Compound 25]
IC50: > 10 µM

Cc1nnc(N2CCN(CCCC(c3ccc(F)cc3)c3ccc(F)cc3)CC2)c2ccccc12 [Compound 29]
IC50: > 10 µM

O=c1[nH]nc(NC2CCCN(CCCC(c3ccc(F)cc3)c3ccc(F)cc3)CC2)c2ccccc12 (centres unmarked) [Compound 30]
IC50: 4 µM

O=c1[nH]nc(NC2CCCNCC2)c2ccccc12 (centres unmarked) [Compound 34]
IC50: > 10 µM

O=c1[nH]nc(NCC2CCCN(Cc3ccccc3)C2)c2ccccc12 (centres unmarked) [Compound 44]
IC50: > 10 µM

O=c1[nH]nc(NC2CCN(CCCCOc3ccccc3)CC2)c2ccccc12 [Compound 46]
IC50: > 10 µM

CCOC(=O)N1CCC(Nc2n[nH]c(=O)c3ccccc23)C1 (centres unmarked) [Compound 48]
IC50: > 10 µM

O=c1[nH]nc(NCC2CCCN(CCCC(c3ccc(F)cc3)c3ccc(F)cc3)C2)c2ccccc12 (centres unmarked) [Compound 49]
IC50: 1.56 µM

CCOC(=O)N1CCCC(Nc2n[nH]c(=O)c3ccccc23)CC1 (centres unmarked) [Compound 50]
IC50: > 10 µM

O=c1[nH]nc(NC2CCN(Cc3ccccc3)C2)c2ccccc12 (centres unmarked) [Compound 51]
IC50: > 10 µM

O=c1[nH]nc(N2CCN(CCCC(c3ccc(F)cc3)c3ccc(F)cc3)CC2)c2ccccc12 [Compound 52]
IC50: 6.55 µM

O=c1[nH]nc(NC2CCCN(Cc3ccccc3)C2)c2ccccc12 (centres unmarked) [Compound 53]
IC50: > 10 µM

O=c1[nH]nc(N2CCC(c3cccc(C(F)(F)F)c3)C2)c2ccccc12 (centres unmarked) [Compound 55]
IC50: 1.5 µM

CCOC(=O)N1CCC(Nc2n[nH]c(=O)c3ccccc23)CC1 [Compound 56]
IC50: > 10 µM

Fc1ccc(C(CCCN2CCN(c3nnc(Cl)c4ccccc34)CC2)c2ccc(F)cc2)cc1 [Compound 57]
IC50: 5.08 µM

CCOC(=O)N1CCN(c2nnc(Cl)c3ccccc23)CC1 [Compound 58]
IC50: 9.02 µM

Clc1nnc(NC2CCN(CCCCOc3ccccc3)CC2)c2ccccc12 [Compound 59]
IC50: > 10 µM

CN(c1nc2ccccc2s1)C1CCN(c2nnc(Cl)c3ccccc23)CC1 [Compound 61]
IC50: > 10 µM

COc1ccc(CCN2CCC(Nc3n[nH]c(=O)c4ccccc34)CC2)cc1 [Compound 63]
IC50: > 10 µM

O=c1[nH]nc(NC2CCN(C/C=C/c3ccccc3)CC2)c2ccccc12 [Compound 65]
IC50: > 10 µM

O=c1[nH]nc(C2CCN(C/C=C/c3ccccc3)CC2)c2ccccc12 [Compound 66]
IC50: 4.33 µM

O=c1[nH]nc(C2CCN(CCCC(c3ccc(F)cc3)c3ccc(F)cc3)CC2)c2ccccc12 [Compound 67]
IC50: > 10 µM

O=c1[nH]nc(C2CCN(CCCCOc3ccccc3)CC2)c2ccccc12 [Compound 68]
IC50: > 10 µM

O=c1[nH]nc(C2CCN(c3ncccn3)CC2)c2ccccc12 [Compound 69]
IC50: 5.52 µM

Cc1nnc(N2CCN(CCn3c(=O)[nH]c4ccccc4c3=O)CC2)c2ccccc12 [Compound 70]
IC50: 3.73 µM

Cc1nnc(N2CCN(CCn3c(=O)[nH]c4ccccc43)CC2)c2ccccc12 [Compound 71]
IC50: > 10 µM

Cc1nc2ccccn2c(=O)c1CCN1CCN(c2nnc(C)c3ccccc23)CC1 [Compound 72]
IC50: > 10 µM

Cc1nc2sccn2c(=O)c1CCN1CCN(c2nnc(C)c3ccccc23)CC1 [Compound 73]
IC50: > 10 µM

Cc1nc2scc(C)n2c(=O)c1CCN1CCN(c2nnc(C)c3ccccc23)CC1 [Compound 74]
IC50: 4.69 µM

Cc1nc2n(c(=O)c1CCN1CCN(c3nnc(C)c4ccccc34)CC1)CCS2 [Compound 75]
IC50: > 10 µM

Cc1nc2n(c(=O)c1CCN1CCN(c3nnc(C)c4ccccc34)CC1)CCCS2 [Compound 76]
IC50: > 10 µM

Clc1nnc(N2CCN(c3ccccc3)CC2)c2ccccc12 [Compound 77]
IC50: 8.83 µM

Source: patent US7803795B2, “Phthalazine derivatives as parp inhibitors” (Janssen Pharmaceutica N.V., priority 2004, dated 2010)
